Several values for one entry are separate records, joined by “and”; a condition that tells them apart may be missing. Equal values may be shown once. Toxic doses and inconclusive results are not listed. Rule as the data show it: active = T/C of 150% or more; inactive = T/C below 125%.
Tested on: L1210 leukemia ip in BDF1 mice, survival T/C
Experiment: NCI In Vivo Anticancer Drug Screen. Data for tumor model L1210 Leukemia (intraperitoneal) in B6D2F1 (BDF1) mice
Details: endpoint: mean survival time, higher = longer survival
Procedure, shortened: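 Ratio derived from survival: compound-dosed mice over vehicle-dosed mice, all bearing a transplantable tumor.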

[1] = dose: 100.0 mg/kg/injection, schedule: Q04DX002 (ip), vehicle: saline with Tween-80
[2] = dose: 200.0 mg/kg/injection, schedule: Q04DX002 (ip), vehicle: saline with Tween-80
[3] = dose: 12.5 mg/kg/injection, schedule: Q01DX009 (ip), vehicle: saline
[4] = dose: 25.0 mg/kg/injection, schedule: Q01DX009 (ip), vehicle: saline
[5] = dose: 50.0 mg/kg/injection, schedule: Q01DX009 (ip), vehicle: saline
[6] = dose: 100.0 mg/kg/injection, schedule: Q04DX003 (ip), vehicle: saline
[7] = dose: 100.0 mg/kg/injection, schedule: Q01DX009 (ip), vehicle: Klucel (hydroxypropylcellulose) (HPC)
[8] = dose: 200.0 mg/kg/injection, schedule: Q01DX009 (ip), vehicle: Klucel (hydroxypropylcellulose) (HPC)
[9] = dose: 50.0 mg/kg/injection, schedule: Q01DX001 (ip), vehicle: carboxymethylcellulose (CMC)
[10] = dose: 100.0 mg/kg/injection, schedule: Q01DX001 (ip), vehicle: carboxymethylcellulose (CMC)
[11] = dose: 200.0 mg/kg/injection, schedule: Q01DX001 (ip), vehicle: carboxymethylcellulose (CMC)
[12] = dose: 400.0 mg/kg/injection, schedule: Q01DX001 (ip), vehicle: carboxymethylcellulose (CMC)
[13] = dose: 200.0 mg/kg/injection, schedule: Q04DX003 (ip), vehicle: saline
[14] = dose: 100.0 mg/kg/injection, schedule: Q01DX009 (ip), vehicle: saline
[15] = dose: 200.0 mg/kg/injection, schedule: Q01DX009 (ip), vehicle: saline
[16] = dose: 100.0 mg/kg/injection, schedule: Q04DX003 (ip), vehicle: Klucel (hydroxypropylcellulose) (HPC)
[17] = dose: 200.0 mg/kg/injection, schedule: Q04DX003 (ip), vehicle: Klucel (hydroxypropylcellulose) (HPC)
[18] = dose: 400.0 mg/kg/injection, schedule: Q04DX003 (ip), vehicle: Klucel (hydroxypropylcellulose) (HPC)
[19] = dose: 400.0 mg/kg/injection, schedule: Q01DX009 (ip), vehicle: Klucel (hydroxypropylcellulose) (HPC)
[20] = dose: 100.0 mg/kg/injection, schedule: Q01DX001 (ip), vehicle: saline
[21] = dose: 200.0 mg/kg/injection, schedule: Q01DX001 (ip), vehicle: saline
[22] = dose: 400.0 mg/kg/injection, schedule: Q01DX001 (ip), vehicle: saline
[23] = dose: 100.0 mg/kg/injection, schedule: Q04DX003 (ip), vehicle: saline with Tween-80
[24] = dose: 200.0 mg/kg/injection, schedule: Q04DX003 (ip), vehicle: saline with Tween-80
[25] = dose: 400.0 mg/kg/injection, schedule: Q04DX003 (ip), vehicle: saline with Tween-80

Measured: T/C

CC(NC(=O)C(C)(C)C)c1ccc2c(c1)OCCO2 (configuration not stated)
inactive: [1] 106 % of control | [2] 95 % of control | dose: 400.0 mg/kg/injection, schedule: Q04DX002 (ip), vehicle: saline with Tween-80 95 % of control

CN1CCC(=C2c3ccccc3C=Cc3ccccc32)CC1
inactive: dose: 6.25 mg/kg/injection, schedule: Q01DX009 (ip), vehicle: saline 95 % of control | [3] 90 % of control | [4] 95 % of control | dose: 25.0 mg/kg/injection, schedule: Q04DX003 (ip), vehicle: saline 96 % of control | [5] 98 % of control | [6] 102 % of control

O=C(O)c1c(Br)c(Br)c(Br)c(Br)c1C(=O)Nc1ccccc1C(F)(F)F
inactive: [7] 101 % of control | [8] 93 % of control

O=C(NCCCCCCNC(=O)NS(=O)(=O)c1ccccc1)NS(=O)(=O)c1ccccc1
inactive: [9] 119 % of control | [10] 102 % of control | [11] 107 % of control | [12] 105 % of control

O=C(N/N=C/c1ccc([N+](=O)[O-])s1)c1ccccc1O
inactive: [6] 94 % of control | [13] 100 % of control | dose: 400.0 mg/kg/injection, schedule: Q04DX003 (ip), vehicle: saline 97 % of control

Clc1nc(Cl)nc(Cl)n1
inactive: dose: 100.0 mg/kg/injection, schedule: Q04DX002 (ip), vehicle: other 98 % of control | dose: 200.0 mg/kg/injection, schedule: Q04DX002 (ip), vehicle: other 95 % of control

C/C=C1/C(=O)Oc2ccccc21
inactive: [5] 97 % of control | [14] 102 % of control | [15] 94 % of control

CCCCCCCCCCN=C(N)CSSCC(N)=NCCCCCCCCCC
inactive: dose: 0.39 mg/kg/injection, schedule: Q04DX002 (ip), vehicle: saline with Tween-80 95 % of control | dose: 0.78 mg/kg/injection, schedule: Q04DX002 (ip), vehicle: saline with Tween-80 100 % of control | dose: 1.56 mg/kg/injection, schedule: Q04DX002 (ip), vehicle: saline with Tween-80 105 % of control

NC(Cc1c[nH]c2c(N(CCCl)CCCl)cccc12)C(=O)O (configuration not stated)
inactive: dose: 0.88 mg/kg/injection, schedule: Q01DX Z (ip), vehicle: methylcellulose (MC) 101 % of control | dose: 1.3 mg/kg/injection, schedule: Q01DX Z (ip), vehicle: methylcellulose (MC) 95 % of control | dose: 2.0 mg/kg/injection, schedule: Q01DX Z (ip), vehicle: methylcellulose (MC) 95 % of control | dose: 3.0 mg/kg/injection, schedule: Q01DX Z (ip), vehicle: methylcellulose (MC) 101 % of control | dose: 5.0 mg/kg/injection, schedule: Q01DX Z (ip), vehicle: methylcellulose (MC) 118 % of control | dose: 40.0 mg/kg/injection, schedule: Q01DX Z (ip), vehicle: methylcellulose (MC) 118 % of control

CCOC(=O)Nc1cc(NC(c2ccc(Cl)cc2)c2ccc(Cl)cc2)c2[nH]cnc2n1
inactive: dose: 25.0 mg/kg/injection, schedule: Q01DX009 (ip), vehicle: other 96 % of control | dose: 50.0 mg/kg/injection, schedule: Q01DX009 (ip), vehicle: other 111 % of control

CN(C(=O)N(CCCl)N=O)c1ccccc1
inactive: [10] 104 % of control | [11] 104 % of control | [12] 105 % of control

CC1C[N+](C)(C)CC(C)C1=O (configuration not stated)
inactive: dose: 12.5 mg/kg/injection, schedule: Q04DX002 (ip), vehicle: saline with Tween-80 96 % of control | dose: 25.0 mg/kg/injection, schedule: Q04DX002 (ip), vehicle: saline with Tween-80 107 % of control | dose: 50.0 mg/kg/injection, schedule: Q04DX002 (ip), vehicle: saline with Tween-80 93 % of control

CCCCCCCCCCCCCCCCN(C(=S)NC(=O)c1ccccc1)c1ccccc1
inactive: dose: 100.0 mg/kg/injection, schedule: Q01DX001 (ip), vehicle: Klucel (hydroxypropylcellulose) (HPC) 96 % of control | [16] 97 % of control | dose: 200.0 mg/kg/injection, schedule: Q01DX001 (ip), vehicle: Klucel (hydroxypropylcellulose) (HPC) 86 % of control | [17] 89 % of control | dose: 400.0 mg/kg/injection, schedule: Q01DX001 (ip), vehicle: Klucel (hydroxypropylcellulose) (HPC) 92 % of control | [18] 95 % of control

CC(C)(SCCc1ccncc1)C(N)C(=O)O (configuration not stated)
inactive: [16] 97 % of control | [17] 92 % of control | [18] 94 % of control

CC(=O)Nc1c(Br)cc2c(c1Br)Cc1cc(N=Cc3ccc4c(c3)OCO4)ccc1-2
inactive: dose: 100.0 mg/kg/injection, schedule: Q01DX001 (ip), vehicle: other 100 % of control | dose: 200.0 mg/kg/injection, schedule: Q01DX001 (ip), vehicle: other 94 % of control | dose: 400.0 mg/kg/injection, schedule: Q01DX001 (ip), vehicle: other 103 % of control

Cc1ccc(C)c(NS(=O)(=O)c2ccc(Cl)c([N+](=O)[O-])c2)c1
inactive: [7] 110 % of control | [8] 105 % of control | [19] 107 % of control

c1ccc(-c2nc(N=C3N=c4ccccc4=N3)[nH]c2-c2ccccc2)cc1
inactive: [16] 112 % of control | [17] 100 % of control | [18] 96 % of control

Cc1csc2ccc([N+](=O)[O-])cc12
inactive: [20] 106 % of control | [21] 101 % of control | [22] 101 % of control

O=C(O)/C=C\C(=O)Nc1ccc(Cc2ccc(NC(=O)/C=C\C(=O)O)cc2)cc1
inactive: [20] 115 % of control | [16] 95 % of control | [21] 103 % of control | [17] 100 % of control | [22] 103 % of control | [18] 97 % of control

Cc1nc2c(O)cccn2c(=O)c1Cl
inactive: dose: 25.0 mg/kg/injection, schedule: Q01DX009 (ip), vehicle: saline with Tween-80 92 % of control | dose: 50.0 mg/kg/injection, schedule: Q01DX009 (ip), vehicle: saline with Tween-80 94 % of control | dose: 100.0 mg/kg/injection, schedule: Q01DX009 (ip), vehicle: saline with Tween-80 97 % of control

CSc1ccccc1C(=O)O
inactive: [9] 100 % of control | [10] 100 % of control | [7] 97 % of control | [16] 103 % of control | [11] 94 % of control | [8] 95 % of control | [17] 94 % of control | [12] 96 % of control | [19] 100 % of control | [18] 110 % of control

COc1ccc(CCNC(=S)NCCc2ccc(OC)c(OC)c2)cc1OC
inactive: [4] 100 % of control | [5] 92 % of control | [14] 98 % of control | [6] 86 % of control | [15] 92 % of control | [13] 86 % of control

C=C(C)COc1c(C)cc(C)cc1C=Nc1ccccc1
inactive: [23] 109 % of control | [24] 106 % of control | [25] 105 % of control

COC(=O)NC1CC=CCC1I (configuration not stated)
inactive: [23] 100 % of control | [24] 102 % of control | [25] 102 % of control

CS(=O)c1ccc2c(c1)-c1ccccc1C2=O (configuration not stated)
inactive: [9] 95 % of control | [10] 101 % of control | [11] 95 % of control | [12] 101 % of control

CS(=O)(=O)c1ccc(Nn2c(N)nn(-c3ccc(S(C)(=O)=O)cc3)c2=N)cc1
inactive: [5] 93 % of control and 95 % of control and 96 % of control | [14] 95 % of control and 86 % of control | [15] 97 % of control and 107 % of control and 92 % of control

CC(C)c1ccc(N2C(=O)CSC2=S)cc1
inactive: [1] 97 % of control | [2] 87 % of control

NC(=O)N/N=C1\CC2CCC1C2Cl (configuration not stated)
inactive: dose: 75.0 mg/kg/injection, schedule: Q01DX001 (ip), vehicle: saline 100 % of control and 107 % of control | dose: 150.0 mg/kg/injection, schedule: Q01DX001 (ip), vehicle: saline 96 % of control | dose: 300.0 mg/kg/injection, schedule: Q01DX001 (ip), vehicle: saline 98 % of control and 88 % of control

CCCCCCCCCCCCCCCC[N+]1([O-])CCOCC1
inactive: [3] 96 % of control | [4] 102 % of control | [5] 98 % of control

— PubChem BioAssay AID248 (DTP/NCI, 2004)
